The results in this text go back to patent US10242153B2, “Method for determining the risk profile of neoplastic tissue” (NOVAZOI THERANOSTICS, priority 2014, dated 2019).

Structures are written as SMILES.

As a reminder, the IC50 is the midpoint of a concentration-inhibition curve. Read a low IC50 as inhibition by little substance.

In assay [1] the test system is N1E-115 cells. The experiment in a line: Drug sensitivity (IC50) of N1E-115 cells. Particulars: Mus musculus; N1E-115 cells (data not shown). The assay is classed as cell-based, murine.
The test system of assay [2] is N1E-115 cells. The experiment in a line: Interphase declustering index (DI) in N1E-115 cells. The format is cell-based, murine. The conditions noted are these: 6-h treatment, 25 interphase cells, drugs at their respective IC50 concentrations. Here is the method:
To evaluate their effect on interphase clustering, N1E-115 cells were treated with these drugs at their respective IC50 concentrations for 0, 3, 6 and 9 h and co-immunostained for γ-tubulin and α-tubulin to evaluate centrosomal spread and microtubule nucleation status, respectively.
Cell cycle phases were further evaluated via lamin A/C immunostaining to distinguish interphase declustering events from prophase centrosomal spread. To quantitate the spread of the interphase centrosomal cluster, a 3D reconstruction of z-stack images of 25 randomly-selected interphase cells from the 6-h treatment group of each drug were generated. By defining an ROI (region of interest) around the interphase centrosomal cluster, the volume of the cluster spread was calculated using Volocity software. Likewise, defining an ROI using the cell periphery provided the cell volume.

The subject of assay [3] is N1E-115 cells. Briefly: Neuritogenesis (neurite extension) in serum-starved N1E-115 cells. The assay is classed as cell-based, murine. The conditions noted are these: 48 h, PJ-34 10 μM, Paclitaxel 0.05 μM. Here is the method:
N1E-115 cells grown in serum-starved (SS) medium were evaluated to determine the extent of neurite formation after 48 h of treatment with RedBr-Nos (5 μM), Griseofulvin (10 μM), PJ-34 (10 μM), Paclitaxel (0.05 μM) treatment or untreated control cells (i.e., serum-starved medium (SS) alone). Panels Ai and Aii depict quantitative bar graphs representing the average length of neurites and percentage of population of cells showing neurite length >10 μm, respectively. A hundred cells were counted in each case. […] Panel B depicts an immunoblot showing CLASP1 expression levels in control (C) and CLASP1 siRNA-transfected N1E-115 cells.
Neuritogenesis is a process in nerve cells involving the extension of polarized, elongated neurites. N1E-115 cells usually extend only one major neurite per cell, which can vary in length from 5 to 500 μm. The growth cones of the neurites serve as primary focal points of motility. The effect of declustering agents on cell motility was evaluated by assessing the length and frequency of neurites formed in a serum-free medium on a laminin-coated surface.

The test system of assay [4] is N1E-115 cells. Briefly: Golgi (GM130) and γ-tubulin co-immunostaining of drug-treated N1E-115 cells. The assay is classed as cell-based, murine. The conditions noted are these: data not shown. From the text: The Golgi, which is primarily responsible for posttranslational modification and protein sorting, also functions as a microtubule-organizing center (MTOC). It has been hypothesized that supernumerary centrosomes may better organize the Golgi to enhance directional cell migration. To investigate what happens to the Golgi upon declustering drug-induced dispersal of the interphase centrosomal cluster, drug-treated N1E-115 cells were co-immunostained with GM130 (a cis-Golgi matrix protein crucial for maintaining its structure) and γ-tubulin.

Assay [5] concerns N1E-115 cells. The experiment in a line: Vinculin localization in serum-starved N1E-115 cells. The format is cell-based, murine. Particulars: serum-starved (SS) cells. An excerpt:
Vinculin stabilizes cell-substrate contacts in neuronal cells undergoing neuritogenesis, while activation by actin-binding proteins mobilizes vinculin to focal adhesions. To determine the localization of vinculin in the neurite extensions and the effect of declustering agents on its localization, N1E-115 cells were immunostained cells for vinculin and stained F-actin using rhodamine-phalloidin.

Assay [6] concerns MDA-MB-231 (231) cells. Briefly: Peak subG1 fraction by flow cytometry (propidium iodide) after declustering drugs, 231 cells. The format is cell-based, human. On the procedure:
(§1) To evaluate the impact of putative declustering drugs on cell cycle progression and hypodiploidy (<2N DNA content, which may indicate apoptotic cells), MDA-MB-231 (231), PC3, and HeLa cells were treated with different concentrations of declustering drugs, stained with propidium iodide, labeled with anti-MPM2 antibody, and then assessed by flow cytometry at multiple time points over 48 hr. […] The duration, highest degree, and rapidity of onset of MA varied between drugs, drug concentrations, and cell lines (data not shown). In general, the maximum MA achieved was less pronounced in Nos- and PJ-treated cells. Drug-induced onset of MA was corroborated by substantial increases in cyclin B1 levels in all cell lines. For most cases, prolonged MA (˜24 hr in duration) was followed by a substantial increase in the subG1 population fraction. […] Instances where the subGl fraction was elevated without cleaved caspase-3 may either represent caspase-independent cell death or the presence of hypodiploid cells whose fate is unclear. In general, no consistent associations between the extent, duration, or timing of MA within drugs or across cell lines was found.
(A flow cytometer gives signals particle by particle.)

Assay [7] deals with HeLa cells. Briefly: Peak subG1 fraction by flow cytometry after declustering drugs, HeLa cells. The format is cell-based. On the procedure:
as §1

The test system of assay [8] is PC3 cells. The experiment in a line: Peak subG1 fraction by flow cytometry after declustering drugs, PC3 cells. The format is cell-based. Here is the method: as §1
Assay [9] has as its system adult human dermal fibroblasts (HDFs). The experiment in a line: Peak subG1 fraction after declustering drugs, non-malignant HDFs. The assay is classed as cell-based. The conditions noted are these: for Peak subG1 percents over 48 h: HDF; for death in cancer cell lines vs. HDFs: both concentrations. Here is the method:
as §1
(§2) To determine whether the CA-inducing activity of declustering drugs is restricted to cancer cells, two non-malignant cell lines, mammary fibrocystic (MCF10A) cells and adult human dermal fibroblasts (HDFs) were treated with these drugs. […] In comparison, 10 and 25 µM RBN increased peak CA over controls in interphase cells (p<0.001 and p=0.001, respectively), with the lower concentration dramatically augmenting peak CA to 56% of cells versus 15% for the higher dose (FIG. 13, panel B).
In HDFs, all the drugs tested increased peak subG1 over controls in a significant fashion (p<0.01 for all) (Table 2). […] Thus, it appears that there may be clinically relevant therapeutic windows for these drugs depending on the type of cancer and the drug dosage.

For assay [10], the system named is mammary fibrocystic (MCF10A) cells. Briefly: Peak subG1 fraction after declustering drugs, non-malignant MCF10A cells. The format is cell-based. The conditions noted are these: for peak subG1 percent compared to controls: MCF10A cells; for Peak subG1 percents over 48 h: MCF10A. On the procedure: as §1, §2
Importantly, a therapeutic window exists for several of these agents at the concentrations and in the cell lines tested compared to cancer cells.

The test system of assay [11] is MCF10A cells. Briefly: Centrosome amplification (CA) by microscopy, MCF10A cells. The format is cell-based. The conditions noted are these: interphase and mitotic MCF10A cells, both concentrations (10 and 25 μM), over 24 h. Here is the method: (§3) Consequently, CA was assessed in cultures treated with different concentrations of declustering drugs for 6, 12, 18, or 24 h and untreated controls via microscopy. Centrosomes were identified by γ-tubulin and centrin-2 colocalization at discrete foci.
as §2

Assay [12] relates to adult human dermal fibroblasts (HDFs). Briefly: Centrosome amplification (CA) by microscopy, HDFs. The format is cell-based. Particulars: HDFs, any of the concentrations or time points assessed. On the procedure:
as §3, §2

Assay [13] deals with ZR-75-30 cells with amplified centrosomes (ZR-A). Briefly: Sub-G1 population in ZR-75-30 cells with amplified centrosomes (ZR-A) versus parent cells. The assay is classed as cell-based. Particulars: 25 μM, 48 h. On the procedure: Panel A depicts representative DNA histograms comparing cell-cycle kinetics of ZR-75-30 cells and ZR-A cells treated with bromonoscapine (BN, 25 μM), griseofulvin (GF, 25 μM) or PJ34 (25 μM), respectively for 48 h. […] Panel B depicts a quantitative comparison of sub-G1 population in ZR-75-30 and ZR-A cells upon treatment with the three drugs with the same concentration (25 μM) for the same duration (48 h).
Accordingly, these cells can be pharmacologically manipulated with aphidicolin to generate extra centrosomes. […] Following aphidicolin wash-out, cells were stained using anti-centrin-2 antibodies to verify extra centrosomes by immunofluorescence confocal microscopy. About ˜60% ZR-75-30 cells generated extra centrosomes (6-8 per cell) and were evaluated for their sensitivity to the three drugs, griseofulvin, bromonoscapine, and PJ34, and compared with parent ZR-75-30 cells with normal centrosomes.

Assay [14] concerns 231 cells. The experiment in a line: Centrosome amplification (CA) by microscopy (γ-tubulin/centrin-2 foci), 231 cells. The format is cell-based, human. Particulars: 231 cells, 25 μM. On the procedure:
Consequently, CA was assessed in cultures treated with different concentrations of declustering drugs for 6, 12, 18, or 24 h and untreated controls via microscopy. Centrosomes were identified by γ-tubulin and centrin-2 colocalization at discrete foci. […] The peak percent CA detected over 24 h is shown in FIG. 13 (only statistically significant (P<0.05) increases over control values are represented in the Figures). To better understand the “potency” of drug-induced CA with time, the average fold change in CA over controls over 24 h was assessed (FIG. 12, panel A), whereby the extent of CA across time points (i.e., 6, 12, 18, and 24 hr) was averaged and then divided by the extent of CA in control (i.e., 0 hr). All of the drugs at least doubled the peak extent of CA in all cell lines tested (FIG. 12, panel A), although the final extent of CA could be small or large in magnitude depending on the initial centrosomal burden as shown in FIG. 11. […] The peak extent in interphase HeLa cells was somewhat less at 30.7% and 48.1% for 10 and 25 μM RBN, respectively (FIG. 13, panel A). For Nos and BN, there was no major difference in CA levels in interphase versus mitotic cells.

The test system of assay [15] is PLK4, Cyclin E, and Aurora A. Briefly: Western blotting of markers of centrosome amplification. The assay is classed as cell-based. Particulars: 231 cells, 25 μM. A general note: A western blot detects proteins with antibodies after separation by electrophoresis.

With `CC(=O)O[C@H]1C(=O)[C@@]2(C)[C@H]([C@H](OC(=O)c3ccccc3)[C@]3(O)C[C@H](OC(=O)[C@H](O)[C@@H](NC(=O)c4ccccc4)c4ccccc4)C(C)=C1C3(C)C)[C@]1(OC(C)=O)CO[C@@H]1C[C@@H]2O` [Paclitaxel, paclitaxel], the IC50 in assay [1] was 50 nM. Also, the “interphase declustering index (DI): ratio of average cluster volume to average cell volume” value in assay [2] was 0.08. Moreover, the “inhibition of neurite extension” value in assay [3] is recorded as “moderate inhibition”. Moreover, in assay [4], the “fragmentation of the interphase Golgi complex” value is “interphase Golgi complex fragmented”. Further, the “vinculin localization and focal adhesion points” value in assay [5] is “less severe”.

Consider `COc1ccc2c(c1OC)C(=O)O[C@@H]2[C@H]1c2c(c(Br)c3c(c2OC)OCO3)CCN1C` [BN, bromonoscapine], for which the “Peak subG1 percents over 48 h” value in assay [6] (10 μM) was determined as 32.5%; in assay [6] (25 μM), 65.2%; in [7] (10 μM), 42.0%; in assay [7] (25 μM), 54.9%; in assay [8] (10 μM), 46.0%; in [8] (25 μM), 42.8%. Moreover, the “Peak subG1 percents over 48 h” value amounted to 16.5% in [9] (10 μM), 20.4% in assay [9] (25 μM), 3.5% in assay [10] (10 μM) and 3.0% in [10] (25 μM). Further, the results for the “maximum (peak) subG1 fraction relative to control” value in assay [6] (25 μM), in assay [7] (25 μM) and in [8] (25 μM) were 9.3 × control, 4.4 × control and 9.2 × control, respectively. In assay [9], the “death in cancer cell lines vs. HDFs” value was “the same was true for 231 and PC3 cells”. In addition, the “peak subG1 percent compared to controls” value in [10] was “did not cause a significant increase”. In addition, the “CA / peak extent of CA versus control levels” value in assay [11] is reported as “neither concentrations of Nos or BN significantly increased CA over control levels”. The “extent of CA over controls” value in [12] is given as “did not significantly increase the extent of CA over controls”. Also, in [13], the “sub-G1 population versus parent ZR-75-30 cells” value is recorded as “much higher sub-G1 population compared to parent ZR-75-30 cells”.

For `COc1ccc2c(c1OC)C(=O)O[C@@H]2[C@H]1c2c(cc3c(c2OC)OCO3)CCN1C` [Nos, noscapine], the “Peak subG1 percents over 48 h” value in assay [6] (10 μM) is on record as 26.3%; in assay [6] (25 μM), 43.9%; in [7] (10 μM), 25.0%; in assay [7] (25 μM), 50.1%; in [8] (10 μM) it was 29.9%; in assay [8] (25 μM), 32.7%. In addition, the “Peak subG1 percents over 48 h” value in assay [9] (10 μM) is listed as 14.8%; in assay [9] (25 μM), 11.2%; in [10] (10 μM), 4.1%; in assay [10] (25 μM), 4.2%. Further, the “death in cancer cell lines vs. HDFs” value in [9] is recorded as “more death in all cancer cell lines vs. HDFs”. Besides, the “peak subG1 percent compared to controls” value in assay [10] is reported as “did not cause a significant increase”. Also, the “induction of CA” value in assay [14] is given as “failed to induce significant CA”. Also, the “CA / peak extent of CA versus control levels” value in assay [11] is listed as “neither concentrations of Nos or BN significantly increased CA over control levels”. In assay [12], the “extent of CA over controls” value was “did not significantly increase the extent of CA over controls”. The “expression levels of Cyclin E and PLK4” value in assay [15] was “surge in the expression levels of Cyclin E and PLK4”.
